From paper PMC9033141, “Beta and Gamma Amino Acid-Substituted Benzenesulfonamides as Inhibitors of Human Carbonic Anhydrases” (Pharmaceuticals, 2022)
Several values for one entry are separate records, joined by “and”; a condition that tells them apart may be missing. Equal entries are not always repeated. Where two headings read alike, the source gives them in different places.

Assays:
CAXII = biological target: T1, CAXII (Homo sapiens, UniProt O43570); experiment: biochemical; type: binding; conditions: FTSA
T1 construct: made in house; host or cells: E. coli

CAII = biological target: T2, CAII (Homo sapiens, UniProt P00918); experiment: biochemical; type: binding; conditions: FTSA;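 also: recombinant human CAII, thermal shift with ANS dye fluorescence, Kd_obs from fitting melting temperature versus ligand concentration, intrinsic values corrected for deprotonated sulfonamide and Zn-bound water fractions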
T2 construct: made in house; host or cells: E. coli

CAXIII = CAXIII (Homo sapiens, UniProt Q8N1Q1); experiment: biochemical; conditions: FTSA;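 also: recombinant human CAXIII melting temperature tracked by ANS fluorescence in thermal shift assay, Tm fitted against ligand concentration, intrinsic value corrects Kd for deprotonated sulfonamide and Zn-bound water fractions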
CAIX = biological target: T3, CAIX (Homo sapiens, UniProt Q16790); experiment: biochemical; type: binding; conditions: FTSA
T3 construct: made in house

CAI = biological target: T4, CAI (Homo sapiens, UniProt P00915); experiment: biochemical; type: binding; conditions: FTSA
T4 construct: made in house; host or cells: E. coli
Protocol: Human CA isozymes were expressed in E. coli (CAI, II, III, IV, VA, VB, VII, XII, XIII, XIV) or mammalian cells (CAVI and CAIX), chromatographically purified following the published protocols [47], and stored at −80 °C. The protein concentration was determined by UV absorption at 280 nm using Beer–Lambert law.
The QIAGEN Rotor-Gene Q was used to carry out the experiments, with a blue channel used for excitation (365 nm) and detection (460 nm). FTSA in this case relies on an extrinsic probe, 8-anilino-1-naphthalenesulfonate (ANS), to detect the fluorescence increase during protein denaturation, from which protein melting temperature (Tm) can be determined. […] The observed affinity of ligands for CAs was determined by plotting the Tm as a function of ligand concentration and then fitting a curve as described previously [48]. […] Samples were heated from 25 °C to 99 °C at the speed of 1 °C/min.
The intrinsic thermodynamic parameters were calculated as described in [40]. The intrinsic reaction of inhibitor binding to CA is shown in Equation (1).
When calculating Kd_int values, these protein and ligand fractions from Equation (1) have to be accounted for (Equations (2) and (3)). The intrinsic dissociation constant is calculated by multiplying Kd_obs value by the corresponding fractions of protein and ligand (Equation (4)). (2) fRSO2NH^−=10^pH−pKa_RSO2NH2/1+10^pH−pKa_RSO2NH2 (3) fCAZnH2O=1−10^pH−pKa_CAZnH2O/1+10^pH−pKa_CAZnH2O (4) Kd_int=Kd_obs×fRSO2NH^−×fCAZnH2O (5) ΔGint0=RTlnKd_int
The intrinsic standard Gibbs energy changes upon binding were calculated using Equation (5). Here, R—universal ideal gas constant (8.3144 J/mol·K), T—absolute temperature (310.15 K).

[1] = pH 7.0, 37 °C, read-out: Observed Dissociation Constant (Kd_obs), CAXII
[2] = pH 7.0, 37 °C, read-out: Observed Dissociation Constant (Kd_obs), CAII
[3] = Observed Dissociation Constant (Kd_obs), pH 7.0, 37 °C
[4] = pH 7.0, 37 °C, read-out: Observed Dissociation Constant (Kd_obs), CAIX
[5] = pH 7.0, 37 °C, read-out: Observed Dissociation Constant (Kd_obs), CAI
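For Observed Dissociation Constant (Kd obs), CAXII in this document: recombinant CAXII made in E. coli, ANS-fluorescence thermal shift with affinity fitted from Tm versus ligand concentration, intrinsic energy from Kd_obs corrected for deprotonated sulfonamide and Zn-water fractions.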

Chain of CAXIII (Q8N1Q1 whole entry): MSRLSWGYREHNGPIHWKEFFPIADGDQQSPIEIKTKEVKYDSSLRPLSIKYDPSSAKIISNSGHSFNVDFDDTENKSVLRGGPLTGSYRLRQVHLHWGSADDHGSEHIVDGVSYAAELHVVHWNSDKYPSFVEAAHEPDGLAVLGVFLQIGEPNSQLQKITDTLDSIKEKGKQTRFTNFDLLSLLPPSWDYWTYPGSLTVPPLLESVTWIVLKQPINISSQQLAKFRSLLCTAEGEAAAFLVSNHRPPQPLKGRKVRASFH
T4 sequence (P00915 whole entry): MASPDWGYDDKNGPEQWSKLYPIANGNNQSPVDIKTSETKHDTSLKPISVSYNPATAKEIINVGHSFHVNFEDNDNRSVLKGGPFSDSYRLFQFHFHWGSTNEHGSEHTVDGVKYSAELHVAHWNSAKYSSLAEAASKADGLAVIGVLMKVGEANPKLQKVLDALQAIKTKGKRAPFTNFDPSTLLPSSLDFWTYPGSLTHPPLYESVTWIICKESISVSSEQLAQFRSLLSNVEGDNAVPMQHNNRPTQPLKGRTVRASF
T1 sequence (O43570 25-354): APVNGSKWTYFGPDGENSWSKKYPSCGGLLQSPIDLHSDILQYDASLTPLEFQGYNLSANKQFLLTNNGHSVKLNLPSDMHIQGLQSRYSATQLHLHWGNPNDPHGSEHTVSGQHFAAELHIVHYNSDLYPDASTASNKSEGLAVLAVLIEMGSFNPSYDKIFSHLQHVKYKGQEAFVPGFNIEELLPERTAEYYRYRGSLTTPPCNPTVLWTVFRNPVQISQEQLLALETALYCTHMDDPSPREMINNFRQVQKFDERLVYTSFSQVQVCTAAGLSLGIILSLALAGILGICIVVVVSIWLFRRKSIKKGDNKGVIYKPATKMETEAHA

SMILES | Kd (CAXII; [1]) [µM] | Kd (CAXII; read-out: Kd_obs, CAXII) [µM] | Kd (CAII; [2]) [nM] | Kd (CAII; read-out: Kd_obs, CAII) [nM] | melting point [°C] | Kd (CAXIII; Kd_obs) [µM] | Kd (CAXIII; [3]) [µM] | Kd (CAIX; [4]) [nM] | Kd (CAIX; read-out: Kd_obs, CAIX) | Kd (CAI; [5]) [µM] | Kd (CAI; read-out: Kd_obs, CAI) [µM] | Kd (CAIX; Observed Dissociation Constant (Kd_obs), CAIX, pH 7.0, 37 °C) [nM]
NNC(=O)CC(CNc1ccc(S(N)(=O)=O)cc1)C(=O)NN (stereo not shown) [Compound 2a, 4-((2-(Hydrazinecarbonyl)-4-hydrazineyl-4-oxobutyl)amino)benzenesulfonamide] | 71 | 0.83 to 130 | 14000 | 830 to 130000 | 164 to 165 | 0.83 to 130 | 130 | 4000 | 830 to 130000 nM | 78 | 0.83 to 130 | –
NS(=O)(=O)c1ccc(NCC(CC(=O)NN=Cc2ccccc2[N+](=O)[O-])C(=O)NN=Cc2ccccc2[N+](=O)[O-])cc1 (stereo not shown) [Compound 15a, 4-((2-(2-(2-Nitrobenzylidene)hydrazine-1-carbonyl)-4-(2-(2-nitrobenzylidene)hydrazineyl)-4-oxobutyl)amino)benzenesulfonamide] | 50 | – | 3300 | – | 197 to 198 | – | 6.7 | 1000 | – | 13 | – | –
NS(=O)(=O)c1ccc(NCC(Cc2n[nH]c(=S)n2-c2ccccc2)c2n[nH]c(=S)n2-c2ccccc2)cc1 (stereo not shown) [Compound 25a, 4-((2,3-bis(4-Phenyl-5-thioxo-4,5-dihydro-1H-1,2,4-triazol-3-yl)propyl)amino)benzenesulfonamide] | 4 | – | 3300 | – | 258 to 259 | – | 25 | 100 | – | 100 | – | –
NS(=O)(=O)c1ccc(NCC(CC(=O)NN=Cc2cccc([N+](=O)[O-])c2)C(=O)NN=Cc2cccc([N+](=O)[O-])c2)cc1 (stereo not shown) [Compound 16a, 4-((2-(2-(3-Nitrobenzylidene)hydrazine-1-carbonyl)-4-(2-(3-nitrobenzylidene)hydrazineyl)-4-oxobutyl)amino)benzenesulfonamide] | 50 | – | 4000 | – | 218 to 219 | – | 14 | 1400 | – | 20 | – | –
NS(=O)(=O)c1ccc(NCC(CC(=O)NN=Cc2cccc(Cl)c2)C(=O)NN=Cc2cccc(Cl)c2)cc1 (stereo not shown) [Compound 11a, 4-((2-(2-(3-Chlorobenzylidene)hydrazine-1-carbonyl)-4-(2-(3-chlorobenzylidene)hydrazineyl)-4-oxobutyl)amino)benzenesulfonamide] | 100 | – | 3300 | – | 190 to 191 | – | 5 | 1000 | – | 20 | – | –
NS(=O)(=O)c1ccc(NCC(CC(=O)NN=Cc2ccc([N+](=O)[O-])cc2)C(=O)NN=Cc2ccc([N+](=O)[O-])cc2)cc1 (stereo not shown) [Compound 17a, 4-((2-(2-(4-Nitrobenzylidene)hydrazine-1-carbonyl)-4-(2-(4-nitrobenzylidene)hydrazineyl)-4-oxobutyl)amino)benzenesulfonamide] | 79 | – | 5400 | – | 256 to 257 | – | 19 | 3300 | – | 36 | – | –
NNC(=O)CC(CNc1ccc(S(N)(=O)=O)cc1Cl)C(=O)NN (stereo not shown) [Compound 2b, 3-Chloro-4-((2-(hydrazinecarbonyl)-4-hydrazineyl-4-oxobutyl)amino)benzenesulfonamide] | 14 | 0.83 to 130 | 1300 | 830 to 130000 | – | 0.83 to 130 | 6.7 | 830 | 830 to 130000 nM and 830 nM | 6.7 | 0.83 to 130 | –
Cn1c(CC(CNc2ccc(S(N)(=O)=O)cc2)c2n[nH]c(=S)n2C)n[nH]c1=S (stereo not shown) [Compound 24a, 4-((2,3-bis(4-Methyl-5-thioxo-4,5-dihydro-1H-1,2,4-triazol-3-yl)propyl)amino)benzenesulfonamide] | 3.3 | – | 6700 | – | 170 to 171 | – | 19 | 910 | – | 43 | – | –
Cc1ccc(C)n1NC(=O)CC(CNc1ccc(S(N)(=O)=O)cc1)C(=O)Nn1c(C)ccc1C (stereo not shown) [Compound 19a, N^1,N^4-bis(2,5-Dimethyl-1H-pyrrol-1-yl)-2-(((4-sulfamoylphenyl)amino)methyl)succinamide] | 10 | – | 1700 | – | 195 to 196 | – | 4 | 560 | – | 10 | – | –
CC(C)=NNC(=O)CC(CNc1ccc(S(N)(=O)=O)cc1)C(=O)NN=C(C)C (stereo not shown) [Compound 3a, 4-((4-Oxo-2-(2-(propan-2-ylidene)hydrazine-1-carbonyl)-4-(2-(propan-2-ylidene)hydrazineyl)butyl)amino)benzenesulfonamide] | 110 | – | 13000 | – | – | – | 100 | 6700 | – | 170 | – | –

The remaining lines, values ahead:

Kd (CAXII; [1]) [µM] | Kd (CAXII; read-out: Kd_obs, CAXII) [µM] | Kd (CAII; [2]) [nM] | Kd (CAII; read-out: Kd_obs, CAII) [nM] | melting point [°C] | Kd (CAXIII; Kd_obs) [µM] | Kd (CAXIII; [3]) [µM] | Kd (CAIX; [4]) [nM] | Kd (CAIX; read-out: Kd_obs, CAIX) | Kd (CAI; [5]) [µM] | Kd (CAI; read-out: Kd_obs, CAI) [µM] | Kd (CAIX; Observed Dissociation Constant (Kd_obs), CAIX, pH 7.0, 37 °C) [nM] | SMILES
50 | – | 330 | – | 203 to 204 | – | 0.13 | 130 | – | 1.7 | – | – | NS(=O)(=O)c1ccc(NCC(CC(=O)NN=Cc2ccccc2Cl)C(=O)NN=Cc2ccccc2Cl)c(Cl)c1 (stereo not shown) [Compound 10b, 3-Chloro-4-((2-(2-(2-chlorobenzylidene)hydrazine-1-carbonyl)-4-(2-(2-chlorobenzylidene)hydrazineyl)-4-oxobutyl)amino)benzenesulfonamide]
23 | – | 390 | – | 207 to 208 | – | 0.34 | – | – | 2.6 | – | 330 | NS(=O)(=O)c1ccc(NCC(CC(=O)NN=Cc2ccc(F)cc2)C(=O)NN=Cc2ccc(F)cc2)c(Cl)c1 (stereo not shown) [Compound 13b, 3-Chloro-4-((2-(2-(4-fluorobenzylidene)hydrazine-1-carbonyl)-4-(2-(4-fluorobenzylidene)hydrazineyl)-4-oxobutyl)amino)benzenesulfonamide]
20 | – | 2000 | – | 177 to 178 | – | 10 | 500 | – | 6.7 | – | – | NS(=O)(=O)c1ccc(NCC(CC(=O)NN=Cc2ccccc2O)C(=O)NN=Cc2ccccc2O)cc1 (stereo not shown) [Compound 7a, 4-((2-(2-(2-Hydroxybenzylidene)hydrazine-1-carbonyl)-4-(2-(2-hydroxybenzylidene)hydrazineyl)-4-oxobutyl)amino)benzenesulfonamide]
50 | – | 500 | – | 178 to 179 | – | 0.4 | 140 | – | 2.5 | – | – | NS(=O)(=O)c1ccc(NCC(CC(=O)NN=Cc2ccccc2[N+](=O)[O-])C(=O)NN=Cc2ccccc2[N+](=O)[O-])c(Cl)c1 (stereo not shown) [Compound 15b, 3-Chloro-4-((2-(2-(2-nitrobenzylidene)hydrazine-1-carbonyl)-4-(2-(2-nitrobenzylidene)hydrazineyl)-4-oxobutyl)amino)benzenesulfonamide]
50 | – | 2500 | – | 174 to 175 | – | 1.7 | 500 | – | 17 | – | – | NS(=O)(=O)c1ccc(NCC(CC(=O)NN=Cc2ccccc2Cl)C(=O)NN=Cc2ccccc2Cl)cc1 (stereo not shown) [Compound 10a, 4-((2-(2-(2-Chlorobenzylidene)hydrazine-1-carbonyl)-4-(2-(2-chlorobenzylidene)hydrazineyl)-4-oxobutyl)amino)benzenesulfonamide]
33 | – | 330 | – | 175 to 176 | – | 0.33 | 130 | – | 2.5 | – | – | NS(=O)(=O)c1ccc(NCC(CC(=O)NN=Cc2cccc(Cl)c2)C(=O)NN=Cc2cccc(Cl)c2)c(Cl)c1 (stereo not shown) [Compound 11b, 3-Chloro-4-((2-(2-(3-chlorobenzylidene)hydrazine-1-carbonyl)-4-(2-(3-chlorobenzylidene)hydrazineyl)-4-oxobutyl)amino)benzenesulfonamide]
20 | – | 250 | – | 119 to 120 | – | 0.2 | 100 | – | 1 | – | – | NS(=O)(=O)c1ccc(NCC(CC(=O)NN=Cc2cccc(O)c2)C(=O)NN=Cc2cccc(O)c2)c(Cl)c1 (stereo not shown) [Compound 8b, 3-Chloro-4-((2-(2-(3-hydroxybenzylidene)hydrazine-1-carbonyl)-4-(2-(3-hydroxybenzylidene)hydrazineyl)-4-oxobutyl)amino)benzenesulfonamide]
6.7 | – | 250 | – | 158 to 159 | – | 0.4 | 180 | – | 4 | – | – | CC(=NNC(=O)CC(CNc1ccc(S(N)(=O)=O)cc1Cl)C(=O)NN=C(C)c1ccccc1)c1ccccc1 (stereo not shown) [Compound 5b, 3-Chloro-4-((4-oxo-2-(2-(1-phenylethylidene)hydrazine-1-carbonyl)-4-(2-(1-phenylethylidene)hydrazineyl)butyl)amino)benzenesulfonamide]
14 | – | 1800 | – | – | – | 6.7 | 670 | – | 10 | – | – | CC(C)=NNC(=O)CC(CNc1ccc(S(N)(=O)=O)cc1Cl)C(=O)NN=C(C)C (stereo not shown) [Compound 3b, 3-Chloro-4-((4-oxo-2-(2-(propan-2-ylidene)hydrazine-1-carbonyl)-4-(2-(propan-2-ylidene)hydrazineyl)butyl)amino)benzenesulfonamide]
